Assay results as given in US8952024B2, “Herbicidal pyrimidone derivatives” (E I du Pont de Nemours and Company, priority 2009, dated 2015).

Key:
Format in all cases: in vivo
[1] = tested on: barnyardgrass (Echinochloa crus-galli); test: Test A pre-/postemergence plant response
In short: (§1)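 Injury was scored visually after roughly ten days against untreated controls, 0 = no effect, 100 = complete control. Test chemicals in a surfactant-containing non-phytotoxic solvent were sprayed either onto soil preemergence or onto one- to two-leaf, 2–10 cm plants postemergence.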

[2] = tested on: pigweed (Amaranthus retroflexus); test: Test A pre-/postemergence plant response
In short: as §1

[3] = tested on: Italian ryegrass (Lolium multiflorum); test: Test B pre-/postemergence plant response; settings: for Ryegrass, Italian plant response rating (0 to 100 scale): 62 g ai/ha, postemergence, 0 is no effect, 100 is complete control, 13 to 15 days; for Plant response rating, Ryegrass, Italian: Postemergence
In short: (§2)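 Pre-em in loam/sand; post-em at 1–4 leaf (2–18 cm) in peat mix. Solvent + surfactant formulation. Greenhouse 13–15 d; visual % control vs untreated, 0–100.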

[4] = tested on: Surinam grass (Brachiaria decumbens); test: Test B pre-/postemergence plant response; settings: for Surinam Grass plant response rating (0 to 100 scale): 62 g ai/ha, postemergence, 0 is no effect, 100 is complete control, 13 to 15 days; for Plant response rating, Surinam Grass: Postemergence
In short: as §2

[5] = tested on: blackgrass (Alopecurus myosuroides); test: Test B pre-/postemergence plant response; settings: for Blackgrass plant response rating (0 to 100 scale): 62 g ai/ha, 0 is no effect, 13 to 15 days
In short: as §2

[6] = tested on: downy bromegrass (Bromus tectorum); test: Test B pre-/postemergence plant response; settings: for Bromegrass, Downy plant response rating (0 to 100 scale): 62 g ai/ha, 0 is no effect, 13 to 15 days
In short: as §2

[7] = tested on: goosegrass (Eleusine indica); test: Test B pre-/postemergence plant response; settings: for Goosegrass plant response rating (0 to 100 scale): 62 g ai/ha, 0 is no effect, 13 to 15 days
In short: as §2

[8] = tested on: large crabgrass (Digitaria sanguinalis); test: Test B pre-/postemergence plant response; settings: for Crabgrass, Large plant response rating (0 to 100 scale): 62 g ai/ha, 0 is no effect, 13 to 15 days
In short: as §2

[9] = tested on: morningglory (Ipomoea coccinea); test: Test B pre-/postemergence plant response; settings: for Morningglory plant response rating (0 to 100 scale): 62 g ai/ha, 0 is no effect, 13 to 15 days
In short: as §2

[10] = tested on: velvetleaf (Abutilon theophrasti); test: Test B pre-/postemergence plant response; settings: for Velvetleaf plant response rating (0 to 100 scale): 62 g ai/ha, postemergence, 0 is no effect, 100 is complete control, 13 to 15 days; for Plant response rating, Velvetleaf: Postemergence
In short: as §2

[11] = tested on: wheat (Triticum aestivum); test: Test B pre-/postemergence plant response; settings: for Wheat plant response rating (0 to 100 scale): 62 g ai/ha, postemergence, 0 is no effect, 100 is complete control, 13 to 15 days; for Plant response rating, Wheat: Postemergence
In short: as §2

[12] = tested on: woolly cupgrass (Eriochloa villosa); test: Test B pre-/postemergence plant response; settings: for Cupgrass, Woolly plant response rating (0 to 100 scale): 62 g ai/ha, 0 is no effect, 13 to 15 days
In short: as §2

[13] = tested on: yellow nutsedge (Cyperus esculentus); test: Test B pre-/postemergence plant response; settings: for Nutsedge, Yellow plant response rating (0 to 100 scale): 62 g ai/ha, 0 is no effect, 13 to 15 days
In short: as §2

[14] = Postemergence, 125 g ai/ha, 0 to 100 scale where 0 is no effect and 100 is complete control
[15] = Postemergence, 500 g ai/ha, 0 to 100 scale, 0 = no effect, 100 = complete control, approx. ten days
[16] = Preemergence, 125 g ai/ha, 0 to 100 scale, 0 = no effect, 100 = complete control
[17] = Preemergence, 500 g ai/ha, visual injury, 0 to 100 scale (0 no effect, 100 complete control), approx. ten days
[18] = 125 g ai/ha, scale 0 to 100 (0 no effect, 100 complete control)
[19] = 250 g ai/ha, scale 0 to 100 (0 no effect, 100 complete control)
[20] = 31 g ai/ha, postemergence, scale 0 to 100, 0 is no effect, 100 is complete control
[21] = postemergence, 100 is complete control
[22] = Postemergence, 125 g ai/ha, scale 0 to 100 (0 no effect, 100 complete control)
[23] = Postemergence, 250 g ai/ha, scale 0 to 100 (0 no effect, 100 complete control)
[24] = 31 g ai/ha, 0 to 100 scale (0 no effect, 100 complete control)
[25] = 16 g ai/ha, Postemergence, 0 to 100 scale
[26] = Postemergence, 31 g ai/ha, 0 to 100 scale (0 no effect, 100 complete control)

COCCn1c(-c2cccs2)ncc(C(=O)C2=C(O)CCCC2=O)c1=O [Compound 108]
Plant response rating, Barnyardgrass [1, 14]: 90 | Plant response rating, Barnyardgrass [1, 15]: 90 | Plant response rating, Barnyardgrass [1, 16]: 30 | Plant response rating, Barnyardgrass [1, 17]: 90 | Plant response rating, Pigweed [2, 14]: 100 | Plant response rating, Pigweed [2, 15]: 100 | Plant response rating, Pigweed [2, 16]: 90 | Plant response rating, Pigweed [2, 17]: 100 | Ryegrass, Italian plant response rating (0 to 100 scale) [3]: 0 | Plant response rating, Ryegrass, Italian [3, 18]: 0 | Plant response rating, Ryegrass, Italian [3, 19]: 0 | Surinam Grass plant response rating (0 to 100 scale) [4]: 60 | Plant response rating, Surinam Grass [4, 18]: 65 | Plant response rating, Surinam Grass [4, 19]: 80 | Plant response rating, Blackgrass [5, 20]: 0 | Blackgrass plant response rating (0 to 100 scale) [5, 21]: 5 | Plant response rating, Blackgrass [5, 22]: 20 | Plant response rating, Blackgrass [5, 23]: 30 | Plant response rating, Bromegrass, Downy [6, 20]: 0 | Bromegrass, Downy plant response rating (0 to 100 scale) [6, 21]: 0 | Plant response rating, Bromegrass, Downy [6, 22]: 5 | Plant response rating, Bromegrass, Downy [6, 23]: 5 | Plant response rating, Goosegrass [7, 20]: 60 | Goosegrass plant response rating (0 to 100 scale) [7, 21]: 70 | Plant response rating, Goosegrass [7, 22]: 75 | Plant response rating, Goosegrass [7, 23]: 85 | Plant response rating, Crabgrass, Large [8, 20]: 60 | Crabgrass, Large plant response rating (0 to 100 scale) [8, 21]: 70 | Plant response rating, Crabgrass, Large [8, 22]: 75 | Plant response rating, Crabgrass, Large [8, 23]: 85 | Plant response rating, Morningglory [9, 20]: 75 | Morningglory plant response rating (0 to 100 scale) [9, 21]: 90 | Plant response rating, Morningglory [9, 22]: 100 | Plant response rating, Morningglory [9, 23]: 100 | Velvetleaf plant response rating (0 to 100 scale) [10]: 100 | Plant response rating, Velvetleaf [10, 18]: 100 | Plant response rating, Velvetleaf [10, 19]: 100 | Wheat plant response rating (0 to 100 scale) [11]: 0 | Plant response rating, Wheat [11, 18]: 0 | Plant response rating, Cupgrass, Woolly [12, 20]: 40 | Cupgrass, Woolly plant response rating (0 to 100 scale) [12, 21]: 60 | Plant response rating, Cupgrass, Woolly [12, 22]: 70 | Plant response rating, Cupgrass, Woolly [12, 23]: 75 | Plant response rating, Nutsedge, Yellow [13, 20]: 50 | Nutsedge, Yellow plant response rating (0 to 100 scale) [13, 21]: 75 | Plant response rating, Nutsedge, Yellow [13, 22]: 80 | Plant response rating, Nutsedge, Yellow [13, 23]: 85

CCn1c(-c2cc(F)cc(F)c2)ncc(C(=O)C2=C(O)CCCC2=O)c1=O [Compound 122]
Plant response rating, Barnyardgrass [1, 14]: 60 | Plant response rating, Barnyardgrass [1, 15]: 80 | Plant response rating, Barnyardgrass [1, 16]: 30 | Plant response rating, Barnyardgrass [1, 17]: 100 | Plant response rating, Pigweed [2, 14]: 100 | Plant response rating, Pigweed [2, 15]: 100 | Plant response rating, Pigweed [2, 16]: 100 | Plant response rating, Pigweed [2, 17]: 100 | Plant response rating, Ryegrass, Italian ([3]; 16 g ai/ha, 0 to 100 scale): 5 | Ryegrass, Italian plant response rating (0 to 100 scale) [3]: 10 | Plant response rating, Ryegrass, Italian [3, 24]: 5 | Plant response rating, Ryegrass, Italian [3, 18]: 40 | Plant response rating, Surinam Grass ([4]; 16 g ai/ha, 0 to 100 scale): 25 | Surinam Grass plant response rating (0 to 100 scale) [4]: 75 | Plant response rating, Surinam Grass [4, 24]: 75 | Plant response rating, Surinam Grass [4, 18]: 90 | Plant response rating, Blackgrass [5, 25]: 0 | Blackgrass plant response rating (0 to 100 scale) [5, 21]: 5 | Plant response rating, Blackgrass [5, 26]: 5 | Plant response rating, Blackgrass [5, 22]: 15 | Plant response rating, Bromegrass, Downy [6, 25]: 5 | Bromegrass, Downy plant response rating (0 to 100 scale) [6, 21]: 5 | Plant response rating, Bromegrass, Downy [6, 26]: 5 | Plant response rating, Bromegrass, Downy [6, 22]: 50 | Plant response rating, Goosegrass [7, 25]: 10 | Goosegrass plant response rating (0 to 100 scale) [7, 21]: 65 | Plant response rating, Goosegrass [7, 26]: 40 | Plant response rating, Goosegrass [7, 22]: 70 | Plant response rating, Crabgrass, Large [8, 25]: 65 | Crabgrass, Large plant response rating (0 to 100 scale) [8, 21]: 75 | Plant response rating, Crabgrass, Large [8, 26]: 75 | Plant response rating, Crabgrass, Large [8, 22]: 85 | Plant response rating, Morningglory [9, 25]: 55 | Morningglory plant response rating (0 to 100 scale) [9, 21]: 75 | Plant response rating, Morningglory [9, 26]: 60 | Plant response rating, Morningglory [9, 22]: 85 | Plant response rating, Velvetleaf ([10]; 16 g ai/ha, 0 to 100 scale): 75 | Velvetleaf plant response rating (0 to 100 scale) [10]: 90 | Plant response rating, Velvetleaf [10, 24]: 80 | Plant response rating, Velvetleaf [10, 18]: 98 | Plant response rating, Wheat ([11]; 16 g ai/ha, 0 to 100 scale): 5 | Wheat plant response rating (0 to 100 scale) [11]: 30 | Plant response rating, Wheat [11, 24]: 15 | Plant response rating, Wheat [11, 18]: 50 | Plant response rating, Cupgrass, Woolly [12, 25]: 65 | Cupgrass, Woolly plant response rating (0 to 100 scale) [12, 21]: 70 | Plant response rating, Cupgrass, Woolly [12, 26]: 65 | Plant response rating, Cupgrass, Woolly [12, 22]: 75 | Plant response rating, Nutsedge, Yellow [13, 25]: 35 | Nutsedge, Yellow plant response rating (0 to 100 scale) [13, 21]: 70 | Plant response rating, Nutsedge, Yellow [13, 26]: 55 | Plant response rating, Nutsedge, Yellow [13, 22]: 75
